In patent US9040663B2, “Melanocortin receptor-specific peptides” (AstraZeneca AB, priority 2009, dated 2015):
Where two headings read alike, the source gives them in different places. Positions of bridges follow the written chain, without caps; N, C: chain ends. Non-standard residues stand in square brackets, D forms with d. Residues, ends and D or L forms follow the SMILES beside them. dPhe(4-CN) = N#Cc1ccc(C[C@@H](N)C(=O)O)cc1; Orn = NCCC[C@H](N)C(=O)O

Experiments:
[1] = molecular target: T1, hMC4-R (Homo sapiens (Human), UniProt P32245); experiment: High and low density hMC4-R functional assay (cAMP, HEK293-T-REx-MC4-R cells); format: cell-based; conditions: for Emax: NDP-α-MSH = 100%, read-out: Intrinsic Activity (%)
T1 sequence (P32245 whole entry): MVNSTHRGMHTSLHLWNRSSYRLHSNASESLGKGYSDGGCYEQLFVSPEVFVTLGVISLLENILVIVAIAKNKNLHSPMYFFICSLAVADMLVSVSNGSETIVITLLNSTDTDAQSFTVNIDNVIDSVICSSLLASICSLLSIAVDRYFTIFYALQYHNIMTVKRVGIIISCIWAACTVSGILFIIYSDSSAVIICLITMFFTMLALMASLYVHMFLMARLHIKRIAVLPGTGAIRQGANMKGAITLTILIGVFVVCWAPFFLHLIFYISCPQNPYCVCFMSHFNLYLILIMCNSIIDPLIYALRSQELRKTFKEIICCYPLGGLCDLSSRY

[2] = molecular target: MC1-R; experiment: Competitive inhibition binding assay using [I125]-NDP-α-MSH, MC1-R; conditions: membranes of B-16 mouse melanoma cells (endogenous MC1-R), in some instances HEK-293 hMC1-R
Description: 7.1 Competitive Inhibition Assay using [I^125]-NDP-α-MSH.
A competitive inhibition binding assay was performed for exemplified peptides according to the invention using membrane homogenates prepared from HEK-293 cells that express recombinant hMC4-R, hMC3-R, or hMC5-R, and from B-16 mouse melanoma cells (containing endogenous MC1-R). In some instances, HEK-293 cells that express recombinant hMC1-R were employed. Assays were performed in 96 well GF/B Millipore multiscreen filtration plates (MAFB NOB10) pre-coated with 0.5% bovine serum albumin (Fraction V). Membrane homogenates were incubated with 0.2 nM (for hMC4-R) 0.4 nM (for MC3-R and MC5-R) or 0.1 nM (for mouse B16 MC1-R or hMC1-R) [I^125]-NDP-α-MSH (Perkin Elmer) and increasing concentrations of test peptides of the present invention in buffer containing 25 mM HEPES buffer (pH 7.5) with 100 mM NaCl, 2 mM CaCl2, 2 mM MgCl2, 0.3 mM 1,10-phenanthroline, and 0.2% bovine serum albumin. After incubation for 60 minutes at 37° C., the assay mixture was filtered and the membranes washed three times with ice-cold buffer. Filters were dried and counted in a gamma counter for bound radioactivity. […] Maximal specific binding (100%) was defined as the difference in radioactivity (cpm) bound to cell membranes in the absence and presence of 1 μM NDP-α-MSH. […] Each assay was conducted in triplicate and the actual mean values are described, with results less than 0% reported as 0%. Ki values for test peptides of the present invention were determined using Graph-Pad Prism® curve-fitting software.

[3] = molecular target: T1, hMC4-R; experiment: Competitive inhibition binding assay using [I125]-NDP-α-MSH, hMC4-R; conditions: membranes of HEK-293 cells expressing recombinant hMC4-R, read-out: MC4-R Ki
[4] = 0.1 ng/mL Doxycycline (low density hMC4-R system)
[5] = 10 ng/mL Doxycycline (high density hMC4-R system)

| EC50 [1, 4] | Emax [1, 4] | EC50 [1, 5] | Emax [1, 5] | Ki [2] | Ki [3] | SMILES |
| --- | --- | --- | --- | --- | --- | --- |
| 1 nM | 79% |  | 97% | 128 nM | 7 nM | CC(=O)N[C@@H](CCCNC(=N)N)C(=O)N[C@H]1CCC(=O)NCCC[C@@H](C(N)=O)NC(=O)[C@H](Cc2c[nH]c3ccccc23)NC(=O)[C@H](CCCNC(=N)N)NC(=O)[C@@H](Cc2ccccc2Cl)NC(=O)[C@H](CCC(N)=O)NC1=O [Example 34, Ac-Arg-cyclo(Glu-Gln-D-Phe(2-Cl)-Arg-Trp-Orn)-NH2] |
|  | 8% | 1 nM | 89% | 380 nM | 6 nM | CC(=O)N[C@@H](CCCNC(=N)N)C(=O)N[C@H]1CCC(=O)NCCC[C@@H](C(N)=O)NC(=O)[C@H](Cc2c[nH]c3ccccc23)NC(=O)[C@H](CCCNC(=N)N)NC(=O)[C@@H](Cc2cccc(Cl)c2)NC(=O)[C@H]([C@@H](C)O)NC1=O [Example 36, Ac-Arg-cyclo(Glu-Thr-D-Phe(3-Cl)-Arg-Trp-Orn)-NH2] |
|  | 6% | 0.55 nM | 90% | 430 nM | 2 nM | CC(=O)N[C@@H](CCCNC(=N)N)C(=O)N[C@H]1CCC(=O)NCCC[C@@H](C(N)=O)NC(=O)[C@H](Cc2c[nH]c3ccccc23)NC(=O)[C@H](CCCNC(=N)N)NC(=O)[C@@H](Cc2cccc(Cl)c2)NC(=O)[C@@H]2C[C@@H](O)CN2C1=O [Example 37, Ac-Arg-cyclo(Glu-Hyp-D-Phe(3-Cl)-Arg-Trp-Orn)-NH2] |
| 2 nM | 31% |  | 97% | 290 nM | 3 nM | CC(=O)N[C@@H](CCCNC(=N)N)C(=O)N[C@H]1CCC(=O)NCCC[C@@H](C(N)=O)NC(=O)[C@H](Cc2c[nH]c3ccccc23)NC(=O)[C@H](CCCNC(=N)N)NC(=O)[C@@H](Cc2cccc(Cl)c2)NC(=O)[C@H](CCC(N)=O)NC1=O [Example 38, Ac-Arg-cyclo(Glu-Gln-D-Phe(3-Cl)-Arg-Trp-Orn)-NH2] |
|  | 4% |  | 64% | 10000 nM |  | CC(=O)N[C@@H](CCCNC(=N)N)C(=O)N[C@H]1CCC(=O)NCCC[C@@H](C(=O)O)NC(=O)[C@H](Cc2c[nH]c3ccccc23)NC(=O)[C@H](CCCNC(=N)N)NC(=O)[C@@H](Cc2ccc(C#N)cc2)NC(=O)[C@H](CC(=O)O)NC1=O [Example 107, Ac-Arg-cyclo(Glu-Asp-D-Phe(4-CN)-Arg-Trp-Orn)-OH] (Ac-RED[dPhe(4-CN)]RW[Orn]-OH; lactam 2-7) |
|  | 3% | 9 nM | 59% | 10000 nM |  | CC(=O)N[C@@H](CCCNC(=N)N)C(=O)N[C@H]1CCC(=O)NCCC[C@@H](C(N)=O)NC(=O)[C@H](Cc2c[nH]c3ccccc23)NC(=O)[C@H](CCCNC(=N)N)NC(=O)[C@@H](Cc2ccc(C#N)cc2)NC(=O)[C@H](CCC(=O)O)NC1=O [Example 108, Ac-Arg-cyclo(Glu-Glu-D-Phe(4-CN)-Arg-Trp-Orn)-NH2] (Ac-REE[dPhe(4-CN)]RW[Orn]-NH2; lactam 2-7) |

Second part, the compound before the results:

| SMILES | EC50 [1, 4] | Emax [1, 4] | EC50 [1, 5] | Emax [1, 5] | Ki [2] | Ki [3] |
| --- | --- | --- | --- | --- | --- | --- |
| CC(=O)N[C@@H](CCCNC(=N)N)C(=O)N[C@H]1CCC(=O)NCCC[C@@H](C(N)=O)NC(=O)[C@H](Cc2c[nH]c3ccccc23)NC(=O)[C@H](CCCNC(=N)N)NC(=O)[C@@H](Cc2ccccc2Cl)NC(=O)[C@H](CCN)NC1=O [Example 1, Ac-Arg-cyclo(Glu-Dab-D-Phe(2-Cl)-Arg-Trp-Orn)-NH2] | 0.34 nM | 91% | 0.045 nM | 96% | 1 nM | 3 nM |
| CC(=O)N[C@@H](CCCNC(=N)N)C(=O)N[C@H]1CCC(=O)NCCC[C@@H](C(N)=O)NC(=O)[C@H](Cc2c[nH]c3ccccc23)NC(=O)[C@H](CCCNC(=N)N)NC(=O)[C@@H](Cc2ccc(Cl)cc2)NC(=O)[C@H](CCN)NC1=O [Example 3, Ac-Arg-cyclo(Glu-Dab-D-Phe(4-Cl)-Arg-Trp-Orn)-NH2] | 0.07 nM | 28% | 0.16 nM | 100% | 0.3 nM | 0.08 nM |
| CC(=O)N[C@@H](CCCNC(=N)N)C(=O)N[C@H]1CCC(=O)NCCC[C@@H](C(N)=O)NC(=O)[C@H](Cc2c[nH]c3ccccc23)NC(=O)[C@H](CCCNC(=N)N)NC(=O)[C@@H](Cc2ccc(Cl)cc2Cl)NC(=O)[C@H](CCN)NC1=O [Example 4, Ac-Arg-cyclo(Glu-Dab-D-Phe(2,4-diCl)-Arg-Trp-Orn)-NH2] |  | 11% | 0.245 nM | 100% | 0.5 nM | 0.055 nM |
| CC(=O)N[C@@H](CCCNC(=N)N)C(=O)N[C@H]1CCC(=O)NCCC[C@@H](C(N)=O)NC(=O)[C@H](Cc2c[nH]c3ccccc23)NC(=O)[C@H](CCCNC(=N)N)NC(=O)[C@@H](Cc2ccc(Cl)c(Cl)c2)NC(=O)[C@H](CCN)NC1=O [Example 5, Ac-Arg-cyclo(Glu-Dab-D-Phe(3,4-diCl)-Arg-Trp-Orn)-NH2] |  | 5% | 0.38 nM | 92% | 0.2 nM | 0.055 nM |
| CC(=O)N[C@@H](CCCNC(=N)N)C(=O)N[C@H]1CCC(=O)NCCC[C@@H](C(N)=O)NC(=O)[C@H](Cc2c[nH]c3ccccc23)NC(=O)[C@H](CCCNC(=N)N)NC(=O)[C@@H](Cc2cccc(C#N)c2)NC(=O)[C@H](CCN)NC1=O [Example 6, Ac-Arg-cyclo(Glu-Dab-D-Phe(3-CN)-Arg-Trp-Orn)-NH2] | 37 nM | 29% | 2 nM | 100% | 43 nM | 33 nM |
| CC(=O)N[C@@H](CCCNC(=N)N)C(=O)N[C@H]1CCC(=O)NCCC[C@@H](C(N)=O)NC(=O)[C@H](Cc2c[nH]c3ccccc23)NC(=O)[C@H](CCCNC(=N)N)NC(=O)[C@@H](Cc2cccc(F)c2)NC(=O)[C@H](CCN)NC1=O [Example 10, Ac-Arg-cyclo(Glu-Dab-D-Phe(3-F)-Arg-Trp-Orn)-NH2] | 0.45 nM | 77% | 0.17 nM | 94% | 2 nM | 2 nM |
| CC(=O)N[C@@H](CCCNC(=N)N)C(=O)N[C@H]1CCC(=O)NCCC[C@@H](C(N)=O)NC(=O)[C@H](Cc2c[nH]c3ccccc23)NC(=O)[C@H](CCCNC(=N)N)NC(=O)[C@@H](Cc2ccc(F)cc2)NC(=O)[C@H](CCN)NC1=O [Example 11, Ac-Arg-cyclo(Glu-Dab-D-Phe(4-F)-Arg-Trp-Orn)-NH2] | 0.065 nM | 83% | 0.06 nM | 90% | 0.5 nM | 0.25 nM |
| CC(=O)N[C@@H](CCCNC(=N)N)C(=O)N[C@H]1CCC(=O)NCCC[C@@H](C(N)=O)NC(=O)[C@H](Cc2c[nH]c3ccccc23)NC(=O)[C@H](CCCNC(=N)N)NC(=O)[C@@H](Cc2ccccc2C(F)(F)F)NC(=O)[C@H](CCN)NC1=O [Example 13, Ac-Arg-cyclo(Glu-Dab-D-Phe(2-CF3)-Arg-Trp-Orn)-NH2] | 0.125 nM | 85% | 0.06 nM | 96% | 3 nM | 0.6 nM |
| COc1ccc(C[C@H]2NC(=O)[C@H](CCN)NC(=O)[C@@H](NC(=O)[C@H](CCCNC(=N)N)NC(C)=O)CCC(=O)NCCC[C@@H](C(N)=O)NC(=O)[C@H](Cc3c[nH]c4ccccc34)NC(=O)[C@H](CCCNC(=N)N)NC2=O)cc1 [Example 16, Ac-Arg-cyclo(Glu-Dab-D-Phe(4-OMe)-Arg-Trp-Orn)-NH2] | 0.15 nM | 28% | 0.16 nM | 97% | 0.15 nM | 0.25 nM |
| CC(=O)N[C@@H](CCCNC(=N)N)C(=O)N[C@H]1CCC(=O)NCCC[C@@H](C(N)=O)NC(=O)[C@H](Cc2c[nH]c3ccccc23)NC(=O)[C@H](CCCNC(=N)N)NC(=O)[C@@H](Cc2ccccc2Cl)NC(=O)[C@H](CO)NC1=O [Example 31, Ac-Arg-cyclo(Glu-Ser-D-Phe(2-Cl)-Arg-Trp-Orn)-NH2] | 7 nM | 33% |  | 98% | 300 nM | 8 nM |
| CC(=O)N[C@@H](CCCNC(=N)N)C(=O)N[C@H]1CCC(=O)NCCC[C@@H](C(N)=O)NC(=O)[C@H](Cc2c[nH]c3ccccc23)NC(=O)[C@H](CCCNC(=N)N)NC(=O)[C@@H](Cc2ccccc2Cl)NC(=O)[C@H]([C@@H](C)O)NC1=O [Example 32, Ac-Arg-cyclo(Glu-Thr-D-Phe(2-Cl)-Arg-Trp-Orn)-NH2] | 18 nM | 34% |  | 96% | 540 nM | 11 nM |
| CC(=O)N[C@@H](CCCNC(=N)N)C(=O)N[C@H]1CCC(=O)NCCC[C@@H](C(N)=O)NC(=O)[C@H](Cc2c[nH]c3ccccc23)NC(=O)[C@H](CCCNC(=N)N)NC(=O)[C@@H](Cc2ccccc2Cl)NC(=O)[C@@H]2C[C@@H](O)CN2C1=O [Example 33, Ac-Arg-cyclo(Glu-Hyp-D-Phe(2-Cl)-Arg-Trp-Orn)-NH2] | 1 nM | 41% | 0.153 nM | 98% | 143 nM | 1 nM |
